Consider two molecules from patent publication US8636978B2, “Cyclized NGR peptide compounds, compositions, and methods of their use” (The United States of America, as Represented by the …, priority 2008, dated 2014).

Residues, ends and D or L forms follow the SMILES beside them. No end group written: not given here. *: point of attachment. OregonGreen488(6-carbonyl) = O=C1OC2(c3cc(F)c(O)cc3Oc3cc(O)c(F)cc32)c2cc(C(=O)*)ccc21

One assay deals with HT-1080 (CD13+) cells. The experiment in a line: Cell binding by epifluorescent microscopy, CD13-positive cells. The assay is classed as cell-based, human. Particulars: 37° C. Here is the method:
(§1) Human fibrosarcoma (HT-1080) and human adenocarcinoma (MCF7) cells were purchased from American Type Culture Collection (ATCC, Manassas, Va.). HT-1080 cells were grown in MEME (ATCC) supplemented with 10% fetal bovine serum (ATCC), and MCF7 cells were grown in the same culture medium with the addition of 0.01 mg/mL bovine insulin (Sigma-Aldrich, St. Louis, Mo.). Both cell lines were maintained in a 5% CO2 incubator at 37° C. Anti-CD13 monoclonal antibody (WM15, Alexa Fluor 488-conjugated) was obtained from AbD Serotec (Raleigh, N.C.).
(§2) Cellular binding of cK(OG)NGRE to the CD13/APN marker was assessed by plating HT-1080 (CD13+) and MCF7 (CD13−) cells in eight-chambered slides (LabTekII, Nunc, Rochester, N.Y.) at a concentration of 15,000 cells/well. After 24 h, cells were washed once with phosphate-buffered saline (PBS) and incubated in complete culture media at 37° C. for 30 min with either cK(OG)NGRE (20 μM) or the anti-CD13 antibody (final concentration 2.5 μg/mL). Slides were washed twice with PBS for 5 min, fixed in 4% paraformaldehyde for 20 min, and mounted with Prolong Gold antifade reagent with DAPI (Invitrogen, Carlsbad, Calif.) and imaged with an epifluorescent microscope (Zeiss Axio Imager.M1, Thornwood, N.Y.) after 24 h. […]

The subject of assay [1] is CD13-positive HT-1080 cells.
Another assay relates to MCF7 (CD13−) cells. The assay can be described thus: Cell binding by epifluorescent microscopy, CD13-negative cells. The assay is classed as cell-based, human. The settings on record: cK(OG)NGRE 20 μM or anti-CD13 antibody 2.5 μg/mL, 37° C., 30 min. Here is the method: as §1, §2

One may read the EC50 as the concentration that produces a half-maximal response. Consider `N=C(N)NCCC[C@@H]1NC(=O)CNC(=O)[C@H](CC(N)=O)NC(=O)[C@H](CCCCNC(=O)c2ccc3c(c2)C2(OC3=O)c3cc(F)c(O)cc3Oc3cc(O)c(F)cc32)NC(=O)[C@H](CCC(N)=O)NC1=O` [cK(OG)NGRE] (cyclo(K(OregonGreen488(6-carbonyl))NGRQ)), for which, in the assay on HT-1080 (CD13+) cells (cK(OG)NGRE 20 μM or anti-CD13 antibody 2.5 μg/mL, 30 min), the “in vitro binding to HT-1080 cells (fluorescence micrographs)” value is given as “clearly demonstrated binding”. In addition, the “localization of fluorescence in HT-1080 cells” value in the assay on HT-1080 (CD13+) cells (epifluorescent microscopy, 30 min incubation) is listed as “internalization of the peptide”. Also, the concentration for a half-maximal effect (EC50) in assay [1] worked out at 61 µM. Besides, in the assay with MCF7 (CD13−) cells, the “in vitro binding to MCF7 cells (fluorescence micrographs)” value is “minimal binding”.
KNGRE [reference compound]: a half-maximal effect in assay [1] (EC50) was put at 220 µM.
